We go through twelve molecules from ChEMBL document CHEMBL5291721, “A preclinical secondary pharmacology resource illuminates target-adverse drug reaction associations of marketed drugs” (Nat Commun, 2023).

Test [1] deals with Motilin receptor (Homo sapiens, UniProt O43193).
The target in test [2] is T1, B2 bradykinin receptor (Homo sapiens, UniProt P30411).
T1 sequence (P30411 whole entry): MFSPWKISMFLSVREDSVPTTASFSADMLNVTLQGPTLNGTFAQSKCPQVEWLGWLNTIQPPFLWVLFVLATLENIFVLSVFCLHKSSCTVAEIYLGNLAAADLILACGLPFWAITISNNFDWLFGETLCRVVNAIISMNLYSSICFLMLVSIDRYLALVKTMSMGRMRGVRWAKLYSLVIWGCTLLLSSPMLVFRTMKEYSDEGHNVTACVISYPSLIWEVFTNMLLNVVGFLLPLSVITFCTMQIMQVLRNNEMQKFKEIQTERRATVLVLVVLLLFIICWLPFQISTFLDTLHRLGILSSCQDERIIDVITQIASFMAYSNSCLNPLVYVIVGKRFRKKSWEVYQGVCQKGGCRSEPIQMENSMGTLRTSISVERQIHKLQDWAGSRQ

Test [3] concerns the target Melanocortin receptor 3 (Homo sapiens, UniProt P41968).
For test [4], the target named is Adenosine receptor A2a (Homo sapiens, UniProt P29274).
Test [5] addresses T2, Amine oxidase [flavin-containing] A (Homo sapiens, UniProt P21397).
T2 sequence (P21397 whole entry): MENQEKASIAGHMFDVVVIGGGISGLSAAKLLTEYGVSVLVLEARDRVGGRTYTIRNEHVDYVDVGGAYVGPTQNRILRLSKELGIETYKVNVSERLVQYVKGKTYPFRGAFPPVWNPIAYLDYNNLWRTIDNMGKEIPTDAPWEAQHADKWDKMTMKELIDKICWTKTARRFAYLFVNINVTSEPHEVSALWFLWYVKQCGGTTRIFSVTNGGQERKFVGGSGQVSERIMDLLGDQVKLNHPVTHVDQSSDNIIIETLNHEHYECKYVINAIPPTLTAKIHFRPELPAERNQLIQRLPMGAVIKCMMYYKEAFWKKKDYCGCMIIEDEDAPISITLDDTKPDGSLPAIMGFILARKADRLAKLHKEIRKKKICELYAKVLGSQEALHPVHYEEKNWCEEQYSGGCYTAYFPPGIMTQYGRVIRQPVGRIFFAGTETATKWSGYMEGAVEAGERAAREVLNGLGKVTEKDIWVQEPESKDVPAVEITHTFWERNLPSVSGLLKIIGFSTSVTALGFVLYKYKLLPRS
The class given is functional.

Test [6] concerns the target T3, Endothelin-1 receptor (Homo sapiens, UniProt P25101).
T3 sequence (P25101 whole entry): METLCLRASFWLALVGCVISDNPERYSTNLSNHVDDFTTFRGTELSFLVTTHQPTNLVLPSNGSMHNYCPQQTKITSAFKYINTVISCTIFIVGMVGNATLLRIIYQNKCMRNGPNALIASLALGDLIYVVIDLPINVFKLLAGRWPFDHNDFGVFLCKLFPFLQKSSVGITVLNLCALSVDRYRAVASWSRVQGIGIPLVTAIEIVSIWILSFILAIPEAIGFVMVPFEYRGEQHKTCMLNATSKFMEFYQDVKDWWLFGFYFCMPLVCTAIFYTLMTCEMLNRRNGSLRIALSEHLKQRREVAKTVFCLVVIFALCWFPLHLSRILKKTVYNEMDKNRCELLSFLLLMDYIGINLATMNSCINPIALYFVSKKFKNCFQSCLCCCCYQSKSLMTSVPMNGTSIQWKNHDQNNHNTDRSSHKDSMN

The target in test [7] is Neuronal acetylcholine receptor subunit alpha-4 (Homo sapiens, UniProt P43681).
Test [8] has as its target 5-hydroxytryptamine receptor 2A (Homo sapiens, UniProt P28223). Type of test: functional, cell-based.
Test [9] concerns the target Muscarinic acetylcholine receptor M3 (Homo sapiens, UniProt P20309).
Test [10] deals with Delta-type opioid receptor (Homo sapiens, UniProt P41143).
The target in test [11] is T4, Thromboxane A2 receptor (Homo sapiens, UniProt P21731).
T4 sequence (P21731 whole entry): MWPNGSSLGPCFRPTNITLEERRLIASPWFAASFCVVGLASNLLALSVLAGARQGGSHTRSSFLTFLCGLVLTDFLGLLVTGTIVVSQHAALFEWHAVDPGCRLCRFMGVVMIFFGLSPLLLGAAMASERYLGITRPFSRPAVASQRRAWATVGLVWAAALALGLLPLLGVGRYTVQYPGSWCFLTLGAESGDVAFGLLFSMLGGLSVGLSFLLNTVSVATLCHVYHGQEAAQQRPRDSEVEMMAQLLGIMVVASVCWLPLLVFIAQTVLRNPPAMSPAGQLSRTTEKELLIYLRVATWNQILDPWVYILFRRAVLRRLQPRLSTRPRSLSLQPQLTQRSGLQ

In test [12] the target is Beta-2 adrenergic receptor (Homo sapiens, UniProt P07550).
The target in test [13] is T5, Glucocorticoid receptor (Homo sapiens, UniProt P04150).
T5 sequence (P04150 whole entry): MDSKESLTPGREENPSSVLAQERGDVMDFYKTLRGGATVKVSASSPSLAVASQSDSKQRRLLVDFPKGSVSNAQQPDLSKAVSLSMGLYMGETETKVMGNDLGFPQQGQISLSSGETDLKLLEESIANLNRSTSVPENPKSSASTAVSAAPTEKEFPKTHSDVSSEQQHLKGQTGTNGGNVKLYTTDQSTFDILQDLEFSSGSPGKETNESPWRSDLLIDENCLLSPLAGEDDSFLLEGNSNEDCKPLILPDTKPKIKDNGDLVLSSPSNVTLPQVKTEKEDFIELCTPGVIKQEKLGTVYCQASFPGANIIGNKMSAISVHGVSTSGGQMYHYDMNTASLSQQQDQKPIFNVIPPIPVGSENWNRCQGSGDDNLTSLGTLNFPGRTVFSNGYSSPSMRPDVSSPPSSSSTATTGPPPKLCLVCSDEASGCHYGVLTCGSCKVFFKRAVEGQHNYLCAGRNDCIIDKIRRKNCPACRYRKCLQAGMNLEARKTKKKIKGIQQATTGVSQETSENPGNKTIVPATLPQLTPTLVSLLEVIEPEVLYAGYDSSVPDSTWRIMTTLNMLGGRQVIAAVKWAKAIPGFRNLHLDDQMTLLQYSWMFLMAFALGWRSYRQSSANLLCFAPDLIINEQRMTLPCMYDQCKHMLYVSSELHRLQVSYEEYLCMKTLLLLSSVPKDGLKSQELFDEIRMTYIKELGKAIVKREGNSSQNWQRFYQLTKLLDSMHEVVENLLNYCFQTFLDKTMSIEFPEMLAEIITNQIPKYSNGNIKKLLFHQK
Further: assay procedure not described here.

Chain of Neuronal acetylcholine receptor subunit alpha-4 (P43681 whole entry): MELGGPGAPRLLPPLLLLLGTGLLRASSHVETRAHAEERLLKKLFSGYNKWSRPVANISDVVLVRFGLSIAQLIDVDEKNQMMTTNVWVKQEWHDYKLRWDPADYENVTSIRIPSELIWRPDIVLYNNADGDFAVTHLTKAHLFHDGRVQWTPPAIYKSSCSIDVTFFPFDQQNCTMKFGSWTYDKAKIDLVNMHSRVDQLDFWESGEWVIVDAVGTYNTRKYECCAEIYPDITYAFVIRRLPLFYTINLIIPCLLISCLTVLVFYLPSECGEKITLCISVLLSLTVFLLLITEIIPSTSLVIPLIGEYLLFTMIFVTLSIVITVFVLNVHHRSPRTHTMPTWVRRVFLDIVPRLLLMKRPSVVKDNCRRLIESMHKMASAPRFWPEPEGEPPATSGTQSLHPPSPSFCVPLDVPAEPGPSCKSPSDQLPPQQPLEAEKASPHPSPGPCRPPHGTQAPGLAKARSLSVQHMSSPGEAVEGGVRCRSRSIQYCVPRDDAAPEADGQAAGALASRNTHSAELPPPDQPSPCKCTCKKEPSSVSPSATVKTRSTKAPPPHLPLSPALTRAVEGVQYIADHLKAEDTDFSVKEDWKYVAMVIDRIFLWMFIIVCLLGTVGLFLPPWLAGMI
Chain of 5-hydroxytryptamine receptor 2A (P28223 whole entry): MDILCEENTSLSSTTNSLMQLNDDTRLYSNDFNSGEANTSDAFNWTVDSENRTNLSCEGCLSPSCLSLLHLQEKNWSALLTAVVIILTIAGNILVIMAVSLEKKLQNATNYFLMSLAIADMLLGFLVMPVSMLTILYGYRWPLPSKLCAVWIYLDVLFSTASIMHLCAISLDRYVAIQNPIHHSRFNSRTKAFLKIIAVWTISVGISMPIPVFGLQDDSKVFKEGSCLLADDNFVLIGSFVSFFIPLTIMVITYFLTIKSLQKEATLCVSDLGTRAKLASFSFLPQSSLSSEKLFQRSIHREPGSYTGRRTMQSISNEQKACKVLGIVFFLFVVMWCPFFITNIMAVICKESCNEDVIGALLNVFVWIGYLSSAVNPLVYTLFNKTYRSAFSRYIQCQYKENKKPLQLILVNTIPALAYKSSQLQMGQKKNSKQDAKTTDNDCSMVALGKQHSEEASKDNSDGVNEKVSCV
Chain of Delta-type opioid receptor (P41143 whole entry): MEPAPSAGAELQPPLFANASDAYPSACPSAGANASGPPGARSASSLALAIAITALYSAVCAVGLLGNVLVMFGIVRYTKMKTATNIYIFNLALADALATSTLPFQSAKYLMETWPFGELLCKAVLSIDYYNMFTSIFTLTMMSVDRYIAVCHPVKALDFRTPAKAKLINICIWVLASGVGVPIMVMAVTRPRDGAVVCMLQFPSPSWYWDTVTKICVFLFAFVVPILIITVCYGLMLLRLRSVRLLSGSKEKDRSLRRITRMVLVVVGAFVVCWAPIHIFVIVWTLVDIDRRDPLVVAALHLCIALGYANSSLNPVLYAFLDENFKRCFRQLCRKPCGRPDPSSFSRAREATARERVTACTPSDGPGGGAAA
Chain of Adenosine receptor A2a (P29274 whole entry): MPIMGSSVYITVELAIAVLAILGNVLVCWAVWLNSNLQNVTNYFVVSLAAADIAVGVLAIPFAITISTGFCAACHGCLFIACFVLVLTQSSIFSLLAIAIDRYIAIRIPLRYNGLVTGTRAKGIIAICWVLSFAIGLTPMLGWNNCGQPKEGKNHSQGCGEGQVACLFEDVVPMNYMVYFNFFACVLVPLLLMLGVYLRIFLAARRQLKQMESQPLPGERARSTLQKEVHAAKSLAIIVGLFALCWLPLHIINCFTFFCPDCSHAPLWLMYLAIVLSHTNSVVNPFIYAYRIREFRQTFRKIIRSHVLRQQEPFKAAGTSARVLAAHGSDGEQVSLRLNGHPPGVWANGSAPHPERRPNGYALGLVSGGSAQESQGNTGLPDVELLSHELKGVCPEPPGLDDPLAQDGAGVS
Chain of Motilin receptor (O43193 whole entry): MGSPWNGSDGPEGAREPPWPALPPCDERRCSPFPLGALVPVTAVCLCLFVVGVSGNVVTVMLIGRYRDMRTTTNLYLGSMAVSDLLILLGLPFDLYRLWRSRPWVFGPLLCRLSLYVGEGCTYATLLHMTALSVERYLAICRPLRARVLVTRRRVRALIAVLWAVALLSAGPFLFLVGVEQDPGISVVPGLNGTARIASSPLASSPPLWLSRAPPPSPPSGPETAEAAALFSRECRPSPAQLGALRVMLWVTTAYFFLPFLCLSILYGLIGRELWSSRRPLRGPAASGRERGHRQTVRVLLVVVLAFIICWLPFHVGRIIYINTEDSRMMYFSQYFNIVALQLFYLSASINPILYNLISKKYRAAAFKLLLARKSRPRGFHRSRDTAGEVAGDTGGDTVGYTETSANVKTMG
Chain of Muscarinic acetylcholine receptor M3 (P20309 whole entry): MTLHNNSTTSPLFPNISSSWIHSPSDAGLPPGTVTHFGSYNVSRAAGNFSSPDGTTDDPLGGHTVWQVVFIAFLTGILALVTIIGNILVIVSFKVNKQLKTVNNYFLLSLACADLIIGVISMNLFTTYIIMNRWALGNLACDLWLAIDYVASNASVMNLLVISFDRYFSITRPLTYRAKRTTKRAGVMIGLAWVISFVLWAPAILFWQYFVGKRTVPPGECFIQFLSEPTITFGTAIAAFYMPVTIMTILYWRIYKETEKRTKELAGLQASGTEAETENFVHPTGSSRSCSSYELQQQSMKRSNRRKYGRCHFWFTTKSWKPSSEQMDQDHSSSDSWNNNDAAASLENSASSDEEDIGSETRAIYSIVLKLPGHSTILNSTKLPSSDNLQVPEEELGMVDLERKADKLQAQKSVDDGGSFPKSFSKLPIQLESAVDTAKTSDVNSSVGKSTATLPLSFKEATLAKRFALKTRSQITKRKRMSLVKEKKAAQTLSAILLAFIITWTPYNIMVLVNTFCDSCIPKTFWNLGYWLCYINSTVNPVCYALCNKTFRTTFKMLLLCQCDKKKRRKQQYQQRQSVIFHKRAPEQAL
Chain of Beta-2 adrenergic receptor (P07550 whole entry): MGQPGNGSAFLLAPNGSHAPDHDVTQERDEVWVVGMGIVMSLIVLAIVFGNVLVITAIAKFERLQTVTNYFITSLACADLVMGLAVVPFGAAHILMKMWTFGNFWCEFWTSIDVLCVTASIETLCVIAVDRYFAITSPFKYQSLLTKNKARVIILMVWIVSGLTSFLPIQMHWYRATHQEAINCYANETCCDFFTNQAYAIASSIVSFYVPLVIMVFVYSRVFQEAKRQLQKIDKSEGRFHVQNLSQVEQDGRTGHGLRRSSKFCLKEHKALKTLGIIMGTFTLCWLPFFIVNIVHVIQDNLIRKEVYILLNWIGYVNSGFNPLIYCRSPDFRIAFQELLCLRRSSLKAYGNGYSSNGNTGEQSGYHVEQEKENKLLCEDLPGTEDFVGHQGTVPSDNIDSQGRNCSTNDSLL
Chain of Melanocortin receptor 3 (P41968 whole entry): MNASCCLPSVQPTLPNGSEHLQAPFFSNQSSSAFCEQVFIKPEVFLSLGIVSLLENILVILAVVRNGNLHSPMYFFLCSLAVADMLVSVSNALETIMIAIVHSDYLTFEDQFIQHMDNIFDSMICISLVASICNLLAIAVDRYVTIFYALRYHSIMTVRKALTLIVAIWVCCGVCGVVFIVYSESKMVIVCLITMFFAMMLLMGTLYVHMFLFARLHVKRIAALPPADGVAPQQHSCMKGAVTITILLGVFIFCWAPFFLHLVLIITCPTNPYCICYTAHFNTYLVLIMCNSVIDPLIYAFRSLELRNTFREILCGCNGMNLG

One may read the AC50 as the concentration at which the activity in the assay is half-maximal. A lower AC50 goes with activity at low concentration. As for `C=CC1=C(C(=O)O)N2C(=O)[C@@H](NC(=O)/C(=N\OCC(=O)O)c3csc(N)n3)[C@H]2SC1` [CEFIXIME], the AC50 in test [1], in test [2], in [3], in test [4], in test [5] and in test [6] was over 30 µM in each case. Also, the AC50 in test [7] and in [8] was over 30 µM in each case.
As for `CO[C@@]1(NC(=O)Cc2cccs2)C(=O)N2C(C(=O)O)=C(COC(N)=O)CS[C@@H]21` [CEFOXITIN], the AC50 in test [1], in test [2], in [3], in [9], in [4] and in [5] was over 30 µM in each case. Further, the AC50 in test [10], in test [6], in [7] and in test [8] was over 30 µM throughout.
In the case of `N[C@H](Cc1cc(I)c(Oc2cc(I)c(O)c(I)c2)c(I)c1)C(=O)O` [DEXTROTHYROXINE], the AC50 in [1] was over 10 µM; in test [2], over 30 µM; in test [3], over 30 µM; in [9], over 30 µM; in [4], over 30 µM; in [11], 21.9 µM. For the same molecule, the AC50 in test [5] is over 10 µM; in [10], over 30 µM; in test [12], over 10 µM; in [13], 25 µM; in test [6], over 30 µM; in test [7], over 10 µM.
On to `C[C@@H]1C[C@H]2[C@@H]3C[C@H](F)C4=CC(=O)C=C[C@]4(C)[C@@]3(F)[C@@H](O)C[C@]2(C)[C@H]1C(=O)CO` [DIFLUCORTOLONE], for which the AC50 in test [3], in [5], in test [10] and in [8] was over 30 µM in each case.
`Clc1ccc2c(c1)C(c1ccccc1)=NCc1nncn1-2` [ESTAZOLAM]: the concentration at half-maximal activity (AC50) in test [1] is over 10 µM; in [2], over 30 µM; in test [3], over 30 µM; in [9] it was over 30 µM; in test [4] it was over 30 µM; in test [11] it was over 30 µM. For the same molecule, the AC50 in test [5] is over 10 µM; in [10], over 30 µM; in [12], over 10 µM; in [13] it was over 30 µM; in [7] it was over 10 µM.
In the case of `Clc1ccc(C(Cn2ccnc2)OCc2ccc(Sc3ccccc3)cc2)c(Cl)c1` (stereo not drawn) [FENTICONAZOLE], the AC50 in test [1] is 23 µM; in [2], over 30 µM; in [3], 21 µM; in test [9] it was 21 µM; in test [4], over 30 µM; in [11] it was over 30 µM. The AC50 in [5] was over 30 µM; in test [10], over 30 µM; in [12] it was over 30 µM; in [13], over 30 µM; in test [6], over 30 µM; in test [7], over 10 µM.
Consider `CC1(C)C(/C=C/C=C/C=C/C=C2\N(CCCCS(=O)(=O)O)c3ccc4ccccc4c3C2(C)C)=[N+](CCCCS(=O)(=O)[O-])c2ccc3ccccc3c21` [INDOCYANINE GREEN ACID FORM], for which the AC50 in test [1] is 23 µM; in test [2] it was 26 µM; in [3], over 30 µM; in test [9] it was 13 µM; in test [4] it was over 30 µM; in [5] it was over 30 µM. The concentration at half-maximal activity (AC50) in test [10] was 9.7 µM; in test [13] it was over 30 µM; in test [6], over 30 µM; in test [7], over 30 µM.
In the case of `CC#CCn1c(N2CCC[C@@H](N)C2)nc2c1c(=O)n(Cc1nc(C)c3ccccc3n1)c(=O)n2C` [LINAGLIPTIN], the AC50 was over 10 µM in test [1]; over 30 µM in test [2]; over 30 µM in test [3]; 6.5 µM in test [9]; over 30 µM in test [4]; over 30 µM in test [11]. For the same molecule, the AC50 was over 10 µM in test [5]; over 10 µM in [10]; over 10 µM in test [12]; over 30 µM in test [13]; over 10 µM in test [7].
`O=C1CN=C(c2ccccc2)c2cc(Cl)ccc2N1` [NORDAZEPAM]: the AC50 is over 10 µM in test [1]; over 30 µM in test [2]; over 30 µM in test [3]; over 10 µM in [9]; over 30 µM in test [4]; over 30 µM in test [11]. Further, the AC50 in test [5] was over 10 µM; in test [10], over 10 µM; in test [12], over 10 µM; in test [13], over 30 µM; in test [6], over 30 µM; in test [7], over 10 µM.
Consider `Cc1cc2nc3c(=O)[nH]c(=O)nc-3n(C[C@H](O)[C@H](O)[C@H](O)COP(=O)(O)O)c2cc1C` [RIBOFLAVIN 5'-PHOSPHATE], for which the AC50 in [1], in test [2], in [3], in [9], in test [4] and in test [11] was over 30 µM throughout. Besides, the half-maximal activity concentration (AC50) in test [5] is over 30 µM; in test [10] it was over 30 µM; in [12], over 30 µM; in test [13], 19 µM; in test [6], over 30 µM; in test [7], over 30 µM.
For `COc1cc2nccc(Oc3ccc(NC(=O)Nc4cc(C)on4)c(Cl)c3)c2cc1OC` [TIVOZANIB], the half-maximal activity concentration (AC50) in test [3] is over 3 µM; in test [4], over 3 µM; in test [11] it was over 3 µM; in test [5], over 30 µM; in test [12], over 3 µM; in test [7], over 3 µM. In test [8], this molecule yielded an AC50 of 24 µM.
With COLISTIN, the concentration at half-maximal activity (AC50) in test [9], in test [5], in test [10] and in test [8] was over 30 µM throughout.
